One compound from patent US6962714B2, “Critical fluid antimicrobial compositions and their use and generation” (priority 2002, dated 2005) can be followed below.

What all share (assay type): cell-based
Assay [1] concerns Escherichia coli ATCC 11229. Description: Aqueous suspension (solution) test, antimicrobial vent gas bubbled through broth. The conditions noted are these: E. coli ATCC 11229, POAA in CO2 gas bubbled through 10 ml bacteria solution. Here is the method: (§1) Exposure times of 30 seconds and two minutes were tested.
Assay [2] has as its system Staphylococcus aureus ATCC 6538. The assay is described as above. The conditions noted are these: S. aureus ATCC 6538, POAA in CO2 gas bubbled through 10 ml bacteria solution. The protocol: as §1
In assay [3] the test system is Escherichia coli ATCC 11229. Description: Hard surface test, stainless steel coupon exposed to vent gas in closed vessel. The conditions noted are these: E. coli ATCC 11229, vent gas five minutes. The protocol:
(§2) The efficacy of peroxyacetic acid antimicrobial delivered via CO2 gas was tested in a hard surface test against Escherichia coli and Staphylococcus aureus.
(§3) The coupons were exposed to the peroxyacetic acid antimicrobial vent gas for five minutes. Dry and wet methods were used for the testing. In the dry method, a dry film was generated on the coupon by adding a 20 μl suspension onto the coupon surface and drying the solution prior to the experiment. In the wet method, the 20 μl suspension was added to the coupon surface immediately before placing the coupon in the syringe and exposing it to the antimicrobial gas. After exposure to the antimicrobial gas for a set time period, the coupon was removed and placed in an appropriate neutralizer to stop the antimicrobial chemical activity. The bacteria remaining on the coupons were then incubated and the population reduction was determined.

For assay [4], the system named is Staphylococcus aureus ATCC 6538. Described as above. The conditions noted are these: S. aureus ATCC 6538, vent gas five minutes. Here is the method: as §2, §3
[5] abbreviates: exposure 2 minutes, listed as peroxyacetic acid.
Setting [6] is: dry method (dry bacterial film on coupon).
Where [7] appears, read: wet method (20 μl bacterial suspension on coupon).

Consider `CC(=O)OO` [POAA, peroxyacetic acid], for which the “Log Reduction” value in assay [1] (exposure 30 seconds) is on record as 1.1 log; in assay [1] (exposure 2 minutes), 6.1 log; in assay [1] (setting [5]), “greater than 6 log”; in assay [2] (exposure 30 seconds), 2.5 log; in assay [2] (exposure 2 minutes), 6.3 log; in assay [2] (setting [5]) it was “greater than 6 log”. Further, the “Log Reduction” value worked out at 6.5 log in assay [3] (setting [6]), 6.5 log in assay [3] (setting [7]), 5.5 log in assay [4] (setting [6]) and 5.5 log in assay [4] (setting [7]).
